What was measured:
[1] = system: patients with relapsed and/or relapsed-refractory multiple myeloma; experiment: Safety of various dosages of melflufen, TEAEs (Example 1); assay type: in vivo, human
Method: Example 1: 4 dose levels (15, 25, 40 and 55 mg) of intravenous melflufen hydrochloride (excluding the mass of the salt component) in 290 to 370 ml glucose solution administered over 30 minutes on Day 1 of a 21-day cycle (in combination with dexamethasone treatment on Days 1, 8 and 15), for at least 1 cycle and up to 12 cycles, were evaluated.
Treatment emergent adverse events (TEAEs) of any grade were recorded in 29 patients that took part in Example 1 (4 patients at 15 mg dosage of melflufen over 30 minutes; 7 patients at 25 mg dosage of melflufen over 30 minutes; 12 patients at 40 mg dosage of melflufen over 30 minutes; and 6 patients at 55 mg dosage of melflufen over 30 minutes).

[2] = system: different human tumors, including MM; settings: at seemingly comparable toxicity; cited from earlier work
[3] = 55 mg melflufen hydrochloride, 6 patients
[4] = Example 1, all dose levels, 29 patients

CCOC(=O)[C@H](Cc1ccc(F)cc1)NC(=O)[C@@H](N)Cc1ccc(N(CCCl)CCCl)cc1.Cl [melflufen, L-Melphalanyl-4-fluoro-L-phenylalanine ethyl ester]
Any treatment-related Grade 3 and 4 TEAE, n patients ([1]; 15 mg over 30 min (n = 4)): 2 | Any treatment-related Grade 3 and 4 TEAE, total number of events ([1]; 15 mg over 30 min (n = 4)): (4) | Grade 3 and 4 febrile neutropenia, n patients ([1]; 15 mg over 30 min (n = 4)): 1 | Grade 3 and 4 febrile neutropenia, total number of events ([1]; 15 mg over 30 min (n = 4)): (1) | Grade 3 and 4 neutropenia, n patients ([1]; 15 mg over 30 min (n = 4)): 0 | Grade 3 and 4 neutropenia, total number of events ([1]; 15 mg over 30 min (n = 4)): (0) | Grade 3 and 4 thrombocytopenia, n patients ([1]; 15 mg over 30 min (n = 4)): 1 | Grade 3 and 4 thrombocytopenia, total number of events ([1]; 15 mg over 30 min (n = 4)): (1) | Any treatment-related Grade 3 and 4 TEAE, n patients ([1]; 25 mg over 30 min (n = 7)): 5 | Any treatment-related Grade 3 and 4 TEAE, total number of events ([1]; 25 mg over 30 min (n = 7)): (13) | Grade 3 and 4 febrile neutropenia, n patients ([1]; 25 mg over 30 min (n = 7)): 0 | Grade 3 and 4 febrile neutropenia, total number of events ([1]; 25 mg over 30 min (n = 7)): (0) | Grade 3 and 4 neutropenia, n patients ([1]; 25 mg over 30 min (n = 7)): 2 | Grade 3 and 4 neutropenia, total number of events ([1]; 25 mg over 30 min (n = 7)): (6) | Grade 3 and 4 thrombocytopenia, n patients ([1]; 25 mg over 30 min (n = 7)): 2 | Grade 3 and 4 thrombocytopenia, total number of events ([1]; 25 mg over 30 min (n = 7)): (3) | Any treatment-related Grade 3 and 4 TEAE, n patients ([1]; 40 mg over 30 min (n = 12)): 7 | Any treatment-related Grade 3 and 4 TEAE, total number of events ([1]; 40 mg over 30 min (n = 12)): (23) | Grade 3 and 4 febrile neutropenia, n patients ([1]; 40 mg over 30 min (n = 12)): 1 | Grade 3 and 4 febrile neutropenia, total number of events ([1]; 40 mg over 30 min (n = 12)): (2) | Grade 3 and 4 neutropenia, n patients ([1]; 40 mg over 30 min (n = 12)): 4 | Grade 3 and 4 neutropenia, total number of events ([1]; 40 mg over 30 min (n = 12)): (8) | Grade 3 and 4 thrombocytopenia, n patients ([1]; 40 mg over 30 min (n = 12)): 4 | Grade 3 and 4 thrombocytopenia, total number of events ([1]; 40 mg over 30 min (n = 12)): (9) | Anemia, treatment related ≥grade 3 [1, 3]: (33) % | Any treatment-related grade 3 and/or grade 4, ≥grade 3 [1, 3]: (100) % | Blood and lymphatic system disorders, treatment related ≥grade 3 [1, 3]: (100) % | Cutaneous rash, treatment related ≥grade 3 [1, 3]: (17) % | Fatigue, treatment related ≥grade 3 [1, 3]: (17) % | General disorders and administration site conditions, treatment related ≥grade 3 [1, 3]: (17) % | Infections and infestations, treatment related ≥grade 3 [1, 3]: (50) % | Neutropenia, treatment related ≥grade 3 [1, 3]: (100) % | Pancytopenia, treatment related ≥grade 3 [1, 3]: (17) % | Pneumonia, treatment related ≥grade 3 [1, 3]: (33) % | Sepsis, treatment related ≥grade 3 [1, 3]: (17) % | Skin and subcutaneous disorders, treatment related ≥grade 3 [1, 3]: (17) % | Thrombocytopenia, treatment related ≥grade 3 [1, 3]: (83) % | Urinary tract infection, treatment related ≥grade 3 [1, 3]: (17) % | Any treatment-related Grade 3 and 4 TEAE, n patients ([1]; 55 mg over 30 min (n = 6)): 6 | Any treatment-related Grade 3 and 4 TEAE, total number of events ([1]; 55 mg over 30 min (n = 6)): (58) | Grade 3 and 4 febrile neutropenia, n patients ([1]; 55 mg over 30 min (n = 6)): 1 | Grade 3 and 4 febrile neutropenia, total number of events ([1]; 55 mg over 30 min (n = 6)): (1) | Grade 3 and 4 neutropenia, n patients ([1]; 55 mg over 30 min (n = 6)): 5 | Grade 3 and 4 neutropenia, total number of events ([1]; 55 mg over 30 min (n = 6)): (17) | Grade 3 and 4 thrombocytopenia, n patients ([1]; 55 mg over 30 min (n = 6)): 5 | Grade 3 and 4 thrombocytopenia, total number of events ([1]; 55 mg over 30 min (n = 6)): (28) | related Grade 3 or 4 neutropenia at least once, patients ([1]; Example 1, all dose levels): 38% | related Grade 3 or 4 thrombocytopenia at least once, patients ([1]; Example 1, all dose levels): 41% | total number of TEAEs reported ([1]; Example 1, all dose levels 15-55 mg, 29 patients): 157 | Grade 3 or 4 TEAEs, regardless of relationship, patients [1, 4]: 76% | anemia, all grades, regardless of relationship [1, 4]: 59% | anemia, all grades, regardless of relationship, n patients [1, 4]: 17 | nausea, all grades, regardless of relationship [1, 4]: 38% | nausea, all grades, regardless of relationship, n patients [1, 4]: 11 | neutropenia, all grades, regardless of relationship [1, 4]: 41% | neutropenia, all grades, regardless of relationship, n patients [1, 4]: 12 | thrombocytopenia, all grades, regardless of relationship [1, 4]: 69% | thrombocytopenia, all grades, regardless of relationship, n patients [1, 4]: 20 | Grade 3 or 4 TEAEs, regardless of relationship, n patients ([1]; Example 1, all dose levels, of 29 patients): 22 | antitumor activity over equimolar dosage of melphalan [2]: superior antitumor activity
